# Laboratory results from patent publication US10538532B2, “Hepatitis B antiviral agents” (ENANTA PHARMACEUTICALS, INC., priority 2016, dated 2020).
# Where two headings read alike, the source gives them in different places.
# Tested on: HBV
# Experiment: HepAD38 antiviral assay: reduction of viral product accumulation (virion DNA by qPCR, HBsAg or HBeAg by ELISA)
# Type: cell-based, hepatitis B virus
# Settings: HepAD38 cells, five days after compound addition, concentration reducing viral product accumulation by 50% relative to no drug controls, read-out: HepAD38 EC50
# Experimental: Methods: HepAD38 cells are maintained as previously reported (Ladner et al, Antimicrob. Agents Chemother. 1997, […], 1715). Briefly, cells are passaged upon attaining confluency in DMEM/F12 media in the presence of 10% FBS, Penn/Strep, 250 μg/mL G418, and 1 ug/ml tetracycline. Novel compounds are screened by first washing cells three times with PBS to remove tetracycline, and plating in 96 well plates at 35,000 cells/well. Compounds dissolved in DMSO are then diluted 1:200 into wells containing cells. Five days after compound addition, material is harvested for analysis. For an extended 8 day analysis, cells are plated and treated as described above, but media and compound are refreshed on d2 and d5 post initial treatment.
# On harvest day, virion DNA is obtained by lysing with Sidestep Lysis and Stabilization Buffer and then quantified via quantitative real time PCR. Commercially available ELISA kits are used to quantitate the viral proteins HBsAg (Alpco) or HbeAg (US Biological) by following the manufacturer's recommended protocol after diluting samples to match the linear range of their respective assays. Irrespective of readout, compound concentrations that reduce viral product accumulation in the cell lysates or supernatants by 50% relative to no drug controls (EC50) are reported; EC50 ranges are as follows: A<0.1 μM; B 0.1-0.4 μM; C>0.4 μM.
# [1] = Hepatitis B virus, HePAD38, 120 h
SMILES,EC50 [1],EC50
O=C(Nc1cc(F)c(F)c(F)c1)c1ccc(Cl)c(S(=O)(=O)C2CC[C@@H](O)[C@@H](O)CC2)c1 (stereo partly shown) [Example 83],100 to 400 nM,
O=C(Nc1cc(F)c(F)c(F)c1)c1ccc(Cl)c(S(=O)(=O)C2C[C@@H](O)[C@@H](O)C2)c1 (stereo partly shown) [Example 85],100 to 400 nM,
O=C(Nc1cc(F)c(F)c(F)c1)c1ccc(Cl)c(S(=O)(=O)C2CC3O[C@H]3C2)c1 (stereo partly shown) [Example 86],,> 400 nM
O=C(Nc1cc(F)c(F)c(F)c1)c1ccc(Cl)c(S(=O)(=O)C2CC3O[C@H]3C2)c1 (stereo partly shown) [Example 87],,100 to 400 nM
O=C(Nc1cc(F)c(F)c(F)c1)c1ccc(Cl)c(S(=O)(=O)C2(CCCO)CCCCC2)c1 [Example 88],> 400 nM,
O=C(Nc1cc(F)c(F)c(F)c1)c1ccc(Cl)c(S(=O)(=O)C2(CCO)CCCCC2)c1 [Example 89],100 to 400 nM,
CC1(C)O[C@@H]2[C@@H](CSc3cc(C(=O)Nc4cc(F)c(F)c(F)c4)ccc3Cl)OC(=O)[C@]2(C)O1 [Example 90],> 400 nM,
CCOC(=O)C(F)(F)Sc1cc(C(=O)Nc2cc(F)c(F)c(F)c2)ccc1Cl [Example 91],> 400 nM,
CCOC(=O)C(C)(C)S(=O)(=O)c1cc(C(=O)Nc2cc(F)c(F)c(F)c2)ccc1Cl [Example 92],> 400 nM,
CCOC(=O)C(F)(F)S(=O)(=O)c1cc(C(=O)Nc2cc(F)c(F)c(F)c2)ccc1Cl [Example 93],> 400 nM,
CCOC(=O)C(C)S(=O)(=O)c1cc(C(=O)Nc2cc(F)c(F)c(F)c2)ccc1Cl (stereo not shown) [Example 94],> 400 nM,
O=C(Nc1cc(F)c(F)c(F)c1)c1ccc(Cl)c(S(=O)(=O)C2CCN(c3ccccn3)CC2)c1 [Example 95],> 400 nM,
CN1CCC(S(=O)(=O)c2cc(C(=O)Nc3cc(F)c(F)c(F)c3)ccc2Cl)CC1 [Example 96],> 400 nM,
C[C@]1(O)C(=O)O[C@H](CSc2cc(C(=O)Nc3cc(F)c(F)c(F)c3)ccc2Cl)[C@H]1O [Example 97],> 400 nM,
CC1(C)O[C@@H]2[C@@H](CS(=O)(=O)c3cc(C(=O)Nc4cc(F)c(F)c(F)c4)ccc3Cl)OC(=O)[C@]2(C)O1 [Example 98],> 400 nM,
C[C@]1(O)C(=O)O[C@H](CS(=O)(=O)c2cc(C(=O)Nc3cc(F)c(F)c(F)c3)ccc2Cl)[C@H]1O [Example 99],> 400 nM,
CC1(C)O[C@@H]2[C@@H](CS(=O)(=O)c3cc(C(=O)Nc4cc(F)c(F)c(F)c4)ccc3Cl)OC(=O)[C@@H]2O1 [Example 100],> 400 nM,
O=C(Nc1cc(F)c(F)c(F)c1)c1ccc(Cl)c(S(=O)(=O)C[C@H]2OC(=O)[C@H](O)[C@@H]2O)c1 [Example 101],> 400 nM,
O=C(Nc1cc(F)c(F)c(F)c1)c1ccc(Cl)c(S(=O)(=O)C[C@@H]2C[C@@H](O)[C@@H](O)C2)c1 [Example 102],100 to 400 nM,
CCOC(=O)C(Cc1ccncc1)S(=O)(=O)c1cc(C(=O)Nc2cc(F)c(F)c(F)c2)ccc1Cl (stereo not shown) [Example 103],> 400 nM,
C=C1CCC(S(=O)(=O)c2cc(C(=O)Nc3cc(F)c(F)c(F)c3)ccc2Cl)CC1 [Example 104],100 to 400 nM,

SMILES,EC50 [1],EC50
O=C(Nc1cc(F)c(F)c(F)c1)c1ccc(Cl)c(S(=O)(=O)C[C@H]2C[C@@H](O)C2)c1 [Example 105],100 to 400 nM,
O=C(Nc1cc(F)c(F)c(F)c1)c1ccc(Cl)c(S(=O)(=O)[C@H]2C3CCC2C[C@H](CO)C3)c1 [Example 106],< 100 nM,
CC1(C)O[C@H]2[C@H](CO[C@@H]2CS(=O)(=O)c2cc(C(=O)Nc3cc(F)c(F)c(F)c3)ccc2Cl)O1 [Example 107],> 400 nM,
O=C(Nc1cc(F)c(F)c(F)c1)c1ccc(Cl)c(S(=O)(=O)C[C@H]2OC[C@H](O)[C@@H]2O)c1 [Example 108],> 400 nM,
O=C(Nc1cc(F)c(F)c(F)c1)c1ccc(Cl)c(S(=O)(=O)[C@H]2CC[C@](O)(CO)CC2)c1 [Example 109],100 to 400 nM,
O=C(Nc1cc(F)c(F)c(F)c1)c1ccc(Cl)c(S(=O)(=O)[C@H]2CC[C@@](O)(CO)CC2)c1 [Example 110],100 to 400 nM,
O=C(Nc1cc(F)c(F)c(F)c1)c1ccc(Cl)c(S(=O)(=O)C[C@H]2CC[C@H](O)CC2)c1 [Example 111],< 100 nM,
O=C(Nc1cc(F)c(F)c(F)c1)c1ccc(Cl)c(S(=O)(=O)C[C@H]2CC[C@@H](O)CC2)c1 [Example 112],< 100 nM,
O=C(Nc1cc(F)c(F)c(F)c1)c1ccc(Cl)c(S(=O)(=O)CC2CCOCC2)c1 [Example 113],100 to 400 nM,
O=C(Nc1cc(F)c(F)c(F)c1)c1ccc(Cl)c(S(=O)(=O)[C@H]2CC[C@@H](CO)CC2)c1 [Example 114],100 to 400 nM,
O=C(Nc1cc(F)c(F)c(F)c1)c1ccc(Cl)c(S(=O)(=O)[C@H]2CC[C@H](CO)CC2)c1 [Example 115],100 to 400 nM,
CCOC(=O)C(CC1CCOCC1)S(=O)(=O)c1cc(C(=O)Nc2cc(F)c(F)c(F)c2)ccc1Cl (stereo not shown) [Example 116],> 400 nM,
CC([C@H]1C[C@@H](O)C1)S(=O)(=O)c1cc(C(=O)Nc2cc(F)c(F)c(F)c2)ccc1Cl (stereo partly shown) [Example 117],100 to 400 nM,
CC(C)([C@H]1C[C@@H](O)C1)S(=O)(=O)c1cc(C(=O)Nc2cc(F)c(F)c(F)c2)ccc1Cl [Example 118],100 to 400 nM,
CC(C)(C)OC(=O)N1C2CCC1CC(S(=O)(=O)c1cc(C(=O)Nc3cc(F)c(F)c(F)c3)ccc1Cl)C2 (stereo not shown) [Example 119],,> 400 nM
O=C(Nc1cc(F)c(F)c(F)c1)c1ccc(Cl)c(S(=O)(=O)[C@H]2C3CC[C@H]2CC(O)C(O)C3)c1 (stereo partly shown) [Example 120],< 100 nM,
CC(C)(c1ccncc1)S(=O)(=O)c1cc(C(=O)Nc2cc(F)c(F)c(F)c2)ccc1Cl [Example 121],> 400 nM,
O=C(Nc1cc(F)c(F)c(F)c1)c1ccc(Cl)c(S(=O)(=O)CCC2CCOCC2)c1 [Example 123],100 to 400 nM,
CC(C)(CO)S(=O)(=O)c1cc(C(=O)Nc2cc(F)c(F)c(F)c2)ccc1Cl [Example 124],100 to 400 nM,
O=C(Nc1cc(F)c(F)c(F)c1)c1ccc(Cl)c(S(=O)(=O)C2CCCC(O)CC2)c1 (stereo not shown) [Example 125],100 to 400 nM,
CC1(C)OC[C@@]2(CC3CC[C@@H](C2)[C@H]3S(=O)(=O)c2cc(C(=O)Nc3ccc(F)c(F)c3)ccc2Cl)O1 [Example 126],100 to 400 nM,

SMILES,EC50 [1],EC50
O=C(Nc1ccc(F)c(F)c1)c1ccc(Cl)c(S(=O)(=O)[C@H]2C3CC[C@H]2C[C@](O)(CO)C3)c1 [Example 127],< 100 nM,
CC1(C)OC[C@@]2(CC3CC[C@@H](C2)[C@H]3S(=O)(=O)c2cc(C(=O)Nc3cc(F)c(F)c(F)c3)ccc2Cl)O1 [Example 128],100 to 400 nM,
O=C[C@]1(O)CC2CC[C@@H](C1)[C@H]2S(=O)(=O)c1cc(C(=O)Nc2cc(F)c(F)c(F)c2)ccc1Cl [Example 129],< 100 nM,
O=C1CC2CC[C@@H](C1)[C@H]2S(=O)(=O)c1cc(C(=O)Nc2cc(F)c(F)c(F)c2)ccc1Cl [Example 130],< 100 nM,
O=C(Nc1cc(F)c(F)c(F)c1)c1ccc(Cl)c(S(=O)(=O)[C@H]2C3CC[C@H]2C[C@](O)(C(=O)O)C3)c1 [Example 131],> 400 nM,
CC(=O)OC[C@]1(O)CC2CC[C@@H](C1)[C@H]2S(=O)(=O)c1cc(C(=O)Nc2cc(F)c(F)c(F)c2)ccc1Cl [Example 132],< 100 nM,
O=C(Nc1cc(F)c(F)c(F)c1)c1ccc(Cl)c(S(=O)(=O)C2C3CCCC2CC(O)(CO)C3)c1 (stereo not shown) [Example 133],100 to 400 nM,
O=C(Nc1cc(F)c(F)c(F)c1)c1ccc(Cl)c(S[C@H]2C3CC[C@H]2C[C@](O)(CO)C3)c1 [Example 134],100 to 400 nM,
CCNC(=O)OC[C@]1(O)CC2CC[C@@H](C1)[C@H]2S(=O)(=O)c1cc(C(=O)Nc2cc(F)c(F)c(F)c2)ccc1Cl [Example 135],100 to 400 nM,
CC(O)[C@]1(O)CC2CC[C@@H](C1)[C@H]2S(=O)(=O)c1cc(C(=O)Nc2cc(F)c(F)c(F)c2)ccc1Cl (stereo partly shown) [Example 136],< 100 nM,
O=C(Nc1cc(F)c(F)c(F)c1)c1ccc(Cl)c(S(=O)(=O)[C@@H]2C3CC[C@H]2C[C@](O)(CO)C3)c1 [Example 137],100 to 400 nM,
O=C(Nc1cc(F)c(F)c(F)c1)c1ccc(Cl)c([S+]([O-])[C@H]2C3CC[C@H]2C[C@](O)(CO)C3)c1 (stereo partly shown) [Example 138],> 400 nM,
O=C(Nc1cc(F)c(F)c(F)c1)c1ccc(Cl)c(S(=O)(=O)[C@H]2C3CC[C@H]2C[C@]2(CO2)C3)c1 [Example 139],< 100 nM,
CC(=O)OCC1=CC2CCC(C1)[C@@H]2S(=O)(=O)c1cc(C(=O)Nc2cc(F)c(F)c(F)c2)ccc1Cl (stereo partly shown) [Example 140],100 to 400 nM,
O=C(Nc1cc(F)c(F)c(F)c1)c1ccc(Cl)c(S(=O)(=O)[C@@H]2C3C=C(CO)CC2CC3)c1 (stereo partly shown) [Example 141],100 to 400 nM,
CS(=O)(=O)OC[C@]1(O)CC2CC[C@@H](C1)[C@H]2S(=O)(=O)c1cc(C(=O)Nc2cc(F)c(F)c(F)c2)ccc1Cl [Example 142],< 100 nM,
CN(C)c1ccc(C(=O)Nc2cc(F)c(F)c(F)c2)cc1S(=O)(=O)[C@H]1C2CC[C@H]1C[C@]1(CO1)C2 [Example 143],> 400 nM,
CN(C)c1ccc(C(=O)Nc2cc(F)c(F)c(F)c2)cc1S(=O)(=O)[C@H]1C2CC[C@H]1C[C@](O)(COS(C)(=O)=O)C2 [Example 144],> 400 nM,
[N-]=[N+]=Nc1ccc(C(=O)Nc2cc(F)c(F)c(F)c2)cc1S(=O)(=O)[C@H]1C2CC[C@H]1C[C@]1(CO1)C2 [Example 145],100 to 400 nM,
